Like-named read-outs stand apart in the source and are kept apart here.
Assays:
[1] = biological target: T1, mutant HIV reverse transcriptase with the Y181C mutation (Human immunodeficiency virus type 1 group M subtype B, UniProt P04585, Y768C); experiment: Analogous RT inhibition assay, Y181C mutant; format: biochemical
T1 construct: mutations that occur in the reverse transcriptase segment of the pol gene; made in house
Description: (§1) 100 μL reaction mixtures were initiated with a combination of primer-template substrate (10 nM final concentration) and dNTPs (0.6 μM dNTPs, 0.75 μM [^3H]-dGTP). The heterodimeric nucleic acid substrate was generated by annealing the DNA primer pD500 (described in Shaw-Reid et al., J. Biol. Chem., 278: 2777-2780; obtained from Integrated DNA Technologies) to t500, a 500 nucleotide RNA template created by in vitro transcription (see Shaw-Reid et al., J. Biol. Chem., 278: 2777-2780). After 1 hour incubation at 37° C., reactions were quenched by 10 μL streptavidin scintillation proximity assay beads (10 mg/mL, from Amersham Biosciences) in 0.5 M EDTA, pH 8. Microtiter plates were incubated an additional 10 minutes at 37° C. prior to quantification via Topcount (Packard).
(§2) Analogous assays were conducted substituting mutant HIV strains to determine the […] inhibition of compounds of the present invention against mutant HIV reverse transcriptase. In one strain the reverse transcriptase has the Y181C mutation and in the other strain the reverse transcriptase has the K103N mutation. The mutations were generated with the […] site-directed mutagenesis kit (Stratagene). […] The compounds set forth in the other Examples were not tested in the Y181C assay. […] The compounds set forth in the other Examples were not tested in the K103N assay.

[2] = biological target: T2, mutant HIV reverse transcriptase with the K103N mutation (Human immunodeficiency virus type 1 group M subtype B, UniProt P04585, K690N); experiment: Analogous RT inhibition assay, K103N mutant; format: biochemical
T2 construct: mutations that occur in the reverse transcriptase segment of the pol gene; made in house
Description: as §1, §2

[3] = test system: HIV replication in T-lymphoid cells; experiment: Spread assay: inhibition of acute HIV infection of T-lymphoid cells; format: cell-based; conditions: read-out: IC95, spread assay (inhibition of HIV replication)
Description: An assay for the inhibition of acute HIV infection of T-lymphoid cells (alternatively referred to herein as the “spread assay”) was conducted in accordance with Vacca, J. P. et al., Proc. Natl. Acad. Sci. USA 1994, 91: 4096. […] The compounds of Examples 26, 29, 30, 33-35 and 62 were tested in the spread assay up to 10 micromolar, but specific IC95 values were not obtained; i.e., the IC95 values were greater than 10 micromolar. The compounds of Examples 47 and 61 were not tested.

[4] = RT with Y181C mutation, tested up to 20 micromolar, read-out: IC50, Y181C mutant assay
[5] = RT with K103N mutation, tested up to 20 micromolar, read-out: IC50, K103N mutant assay
[6] = Human immunodeficiency virus 1, acute HIV infection of T-lymphoid cells, tested up to 10 micromolar
[7] = Human immunodeficiency virus 1, T-lymphoid

NC(=O)c1[nH]c2ccc(Br)cc2c1S(=O)(=O)N1CCCC1 [Example 1, 5-Bromo-3-(pyrrolidin-1-ylsulfonyl)-1H-indole-2-carboxamide]
IC50 [1, 4]: < 1000 nM | IC50 [2, 5]: 1000 to 20000 nM | IC95 [3, 6]: < 1000 nM

NC(=O)c1[nH]c2ccc(Cl)cc2c1S(=O)(=O)NC1CCCCC1 [Example 2, 5-chloro-3-[(cyclohexylamino)sulfonyl]-1H-indole-2-carboxamide]
IC50 [1]: < 1000 nM | IC50 [2]: > 20000 nM | IC95 [3, 6]: < 1000 nM

NC(=O)c1[nH]c2ccc(Cl)cc2c1S(=O)(=O)NC1CCCC1 [Example 4, 5-chloro-3-[(cyclopentylamino)sulfonyl]-1H-indole-2-carboxamide]
IC50 [1, 4]: < 1000 nM | IC50 [2]: > 20000 nM | IC95 [3, 6]: < 1000 nM

NC(=O)c1[nH]c2ccc(Cl)cc2c1S(=O)(=O)N1CCCCC1 [Example 5, 5-chloro-3-(piperidin-1-ylsulfonyl)-1H-indole-2-carboxamide]
IC50 [1, 4]: < 1000 nM | IC50 [2]: > 20000 nM | IC95 [3, 6]: < 1000 nM

NC(=O)c1[nH]c2ccc(Cl)cc2c1S(=O)(=O)N1CCCC1 [Example 6, 5-chloro-3-(pyrrolidin-1-ylsulfonyl)-1H-indole-2-carboxamide]
IC50 [1, 4]: < 1000 nM | IC50 [2]: 1000 to 20000 nM | IC95 [3, 6]: < 1000 nM

CN(C1CC1)S(=O)(=O)c1c(C(N)=O)[nH]c2ccc(Br)cc12 [Example 8, 5-bromo-3-{[cyclopropyl(methyl)amino]sulfonyl}-1H-indole-2-carboxamide]
IC50 [1]: 1000 to 20000 nM | IC50 [2]: > 20000 nM | IC95 [3, 6]: < 1000 nM

NC(=O)c1[nH]c2ccc(Br)cc2c1S(=O)(=O)NCCS(N)(=O)=O [Example 9, 3-({[2-(aminosulfonyl)ethyl]amino}sulfonyl)-5-bromo-1H-indole-2-carboxamide]
IC50 [1]: 1000 to 20000 nM | IC50 [2]: 1000 to 20000 nM | IC95 [3, 6]: < 1000 nM

NC(=O)c1[nH]c2ccc(Br)cc2c1S(=O)(=O)N1CC=CC1 [Example 10, 5-bromo-3-(2,5-dihydro-1H-pyrrol-1-ylsulfonyl)-1H-indole-2-carboxamide]
IC50 [1]: < 1000 nM | IC50 [2]: < 1000 nM | IC95 [3, 6]: < 1000 nM

NC(=O)c1[nH]c2ccc(Br)cc2c1S(=O)(=O)NC1CC1 [Example 11, 5-bromo-3-[(cyclopropylamino)sulfonyl]-1H-indole-2-carboxamide]
IC50 [1]: 1000 to 20000 nM | IC50 [2]: > 20000 nM | IC95 [3, 6]: < 1000 nM

CON(C)S(=O)(=O)c1c(C(N)=O)[nH]c2ccc(Br)cc12 [Example 12, 5-bromo-3-{[methoxy(methyl)amino]sulfonyl}-1H-indole-2-carboxamide]
IC50 [1]: > 20000 nM | IC50 [2]: > 20000 nM | IC95 [3, 6]: < 1000 nM

NC(=O)c1[nH]c2ccc(Br)cc2c1S(=O)(=O)N1CCCCC1 [Example 13, 5-bromo-3-(piperidin-1-ylsulfonyl)-1H-indole-2-carboxamide]
IC50 [1, 4]: < 1000 nM | IC50 [2, 5]: 1000 to 20000 nM | IC95 [3, 6]: < 1000 nM

COC[C@@H]1CCCN1S(=O)(=O)c1c(C(N)=O)[nH]c2ccc(Br)cc12 [Example 15, 5-bromo-3-{[(2S)-2-(methoxymethyl)pyrrolidin-1-yl]sulfonyl}-1H-indole-2-carboxamide]
IC50 [1, 4]: < 1000 nM | IC50 [2, 5]: 1000 to 20000 nM | IC95 [3, 6]: < 1000 nM

NC(=O)c1[nH]c2ccc(Br)cc2c1S(=O)(=O)NC1CCCCC1 [Example 16, 5-bromo-3-[(cyclohexylamino)sulfonyl]-1H-indole-2-carboxamide]
IC50 [1, 4]: < 1000 nM | IC50 [2, 5]: > 20000 nM | IC95 [3, 6]: < 1000 nM

NC(=O)c1[nH]c2ccc(Br)cc2c1S(=O)(=O)NC1CCCC1 [Example 17, 5-bromo-3-[(cyclopentylamino)sulfonyl]-1H-indole-2-carboxamide]
IC50 [1, 4]: < 1000 nM | IC50 [2, 5]: > 20000 nM | IC95 [3, 6]: < 1000 nM

NC(=O)c1[nH]c2ccc(Br)cc2c1S(=O)(=O)NCC1CCCO1 (stereo not shown) [Example 18, 5-bromo-3-{[(tetrahydrofuran-2-ylmethyl)amino]sulfonyl}-1H-indole-2-carboxamide]
IC50 [1, 4]: < 1000 nM | IC50 [2, 5]: > 20000 nM | IC95 [3, 6]: < 1000 nM

NC(=O)c1[nH]c2ccc(Br)cc2c1S(=O)(=O)N1CCC[C@H]1C(F)(F)F [Example 19, 5-bromo-3-{[(2S)-2-(trifluoromethyl)pyrrolidin-1-yl]sulfonyl}-1H-indole-2-carboxamide]
IC50 [1]: 1000 to 20000 nM | IC50 [2, 5]: > 20000 nM | IC95 [3, 6]: < 1000 nM

NC(=O)c1[nH]c2ccc(Br)cc2c1S(=O)(=O)N1CCCC(F)(F)C1 [Example 21, 5-bromo-3-[(3,3-difluoropiperidin-1-yl)sulfonyl]-1H-indole-2-carboxamide]
IC50 [1]: < 1000 nM | IC50 [2]: > 20000 nM | IC95 [3, 6]: < 1000 nM

O=C(NCCO)c1[nH]c2ccc(Br)cc2c1S(=O)(=O)N1CCCCC1 [Example 31, 5-bromo-N-(2-hydroxyethyl)-3-(piperidin-1-ylsulfonyl)-1H-indole-2-carboxamide]
IC50 [1]: < 1000 nM | IC50 [2]: > 20000 nM | IC95 [3, 7]: < 1000 nM

O=C(NCCO)c1[nH]c2ccc(Br)cc2c1S(=O)(=O)N1CCCC1 [Example 32, 5-bromo-N-(2-hydroxyethyl)-3-(pyrrolidin-1-ylsulfonyl)-1H-indole-2-carboxamide]
IC50 [1]: < 1000 nM | IC50 [2]: 1000 to 20000 nM | IC95 [3, 7]: < 1000 nM

NC(=O)c1[nH]c2ccc(Cl)cc2c1S(=O)(=O)N1CC=CC1 [Example 37, 5-chloro-3-(2,5-dihydro-1H-pyrrol-1-ylsulfonyl)-1H-indole-2-carboxamide]
IC50 [1, 4]: < 1000 nM | IC50 [2]: 1000 to 20000 nM | IC95 [3, 6]: < 1000 nM

NC(=O)c1[nH]c2ccc(Cl)cc2c1S(=O)(=O)N1CCC(F)C1 (stereo not shown) [Example 38, 5-chloro-3-[(3-fluoropyrrolidin-1-yl)sulfonyl]-1H-indole-2-carboxamide]
IC50 [1, 4]: < 1000 nM | IC50 [2]: 1000 to 20000 nM | IC95 [3, 6]: < 1000 nM

NC(=O)c1[nH]c2ccc(Cl)cc2c1S(=O)(=O)N1CCC(F)(F)C1 [Example 39, 5-chloro-3-[(3,3-difluoropyrrolidin-1-yl)sulfonyl]-1H-indole-2-carboxamide]
IC50 [1, 4]: < 1000 nM | IC95 [3, 6]: < 1000 nM

O=C(NCc1nccs1)c1[nH]c2ccc(Br)cc2c1S(=O)(=O)N1CCCC1 [Example 47, 5-Bromo-3-(pyrrolidin-1-ylsulfonyl)-N-(1,3-thiazol-2-ylmethyl)-1H-indole-2-carboxamide]
IC50 [1, 4]: < 1000 nM | IC50 [2, 5]: < 1000 nM

O=C(NCc1c(F)cccc1Cl)c1[nH]c2ccc(Br)cc2c1S(=O)(=O)N1CCCC1 [Example 48, 5-bromo-N-(2-chloro-6-fluorobenzyl)-3-(pyrrolidin-1-ylsulfonyl)-1H-indole-2-carboxamide]
IC50 [1]: < 1000 nM | IC50 [2]: < 1000 nM | IC95 [3, 6]: < 1000 nM

O=C(NCc1ccccc1O)c1[nH]c2ccc(Br)cc2c1S(=O)(=O)N1CCCC1 [Example 51, 5-bromo-N-(2-hydroxybenzyl)-3-(pyrrolidin-1-ylsulfonyl)-1H-indole-2-carboxamide]
IC50 [1]: < 1000 nM | IC50 [2]: < 1000 nM | IC95 [3, 6]: < 1000 nM

O=C(NCc1ccccc1OC(F)F)c1[nH]c2ccc(Br)cc2c1S(=O)(=O)N1CCCC1 [Example 53, 5-bromo-N-[2-(difluoromethoxy)benzyl]-3-(pyrrolidin-1-ylsulfonyl)-1H-indole-2-carboxamide]
IC50 [1]: < 1000 nM | IC50 [2]: < 1000 nM | IC95 [3, 6]: < 1000 nM

O=C(NCc1ccn[nH]1)c1[nH]c2ccc(Br)cc2c1S(=O)(=O)N1CCCC1 [Example 59, 5-bromo-N-(1H-pyrazol-5-ylmethyl)-3-(pyrrolidin-1-ylsulfonyl)-1H-indole-2-carboxamide]
IC50 [1]: < 1000 nM | IC50 [2]: < 1000 nM | IC95 [3, 6]: < 1000 nM

O=C(NCc1ccncc1)c1[nH]c2ccc(Br)cc2c1S(=O)(=O)N1CCCC1 [Example 64, 5-bromo-N-(pyridin-4-ylmethyl)-3-(pyrrolidin-1-ylsulfonyl)-1H-indole-2-carboxamide]
IC50 [1]: < 1000 nM | IC50 [2]: < 1000 nM | IC95 [3, 6]: < 1000 nM

O=C(NCc1cncs1)c1[nH]c2ccc(Br)cc2c1S(=O)(=O)N1CCCC1 [Example 65, 5-bromo-3-(pyrrolidin-1-ylsulfonyl)-N-(1,3-thiazol-5-ylmethyl)-1H-indole-2-carboxamide]
IC50 [1]: < 1000 nM | IC50 [2]: < 1000 nM | IC95 [3, 6]: < 1000 nM

N#Cc1ccc2[nH]c(C(N)=O)c(S(=O)(=O)N3CCCC3)c2c1 [Example 68, 5-Cyano-3-(pyrrolidin-1-ylsulfonyl)-1H-indole-2-carboxamide]
IC50 [1, 4]: > 20000 nM | IC50 [2, 5]: 1000 to 20000 nM | IC95 [3, 6]: < 1000 nM

From US20100222322A1, “Non-Nucleoside Reverse Transcriptase Inhibitors” (MERCK & CO., INC., priority 2005, published 2010)
